The conditions of series [1]: oral; cited from earlier work.
A short description of series [2]: Stability of GBP in presence of different stabilizers and solvents. Format: physicochemical. The settings on record: GBP 9 mg/mL in acetate buffer, PVP 10 mg/mL. How it is done:
GBP containing formulations were prepared by dissolving GBP to a concentration of 9 mg/mL in acetate buffer. A first set of samples were tested for assay and impurities after the initial preparation of formulation, Another set of samples were steam sterilized at 121° C. for 15 min and were tested for assay and impurity levels.

Series [3] deals with rat whole blood (male), red blood cells. In words: In vitro hemolysis test, rat blood. The settings on record: rat whole unclotted blood, concentrations tested, 15 min at 37° C. How it is done: (§1) APAP and GBP alone or in combination were evaluated in the in vitro hemolysis test using four biologic matrices (mouse, rat, dog and human whole unclotted blood) to determine the hemolytic potential for each on red blood cells.

For a further series, the system named is Male ICR mice. In words: Mouse RotoRod/Acelerorod test. Conditions: 15 minute IV infusion, 10 mg Acetaminophen/mL, 8 mg Gabapentin/mL, 1, 2, 4, 6 h. How it is done:
Mouse tail flick test was conducted to evaluate test somatic pain and mouse rotorod/acelorod test evaluated behavioral changes, specifically somnolence or dizziness
In each case a positive control was administered as described below.
Male ICR mice were trained on a RotoRod/Acelerod at a continuous accelerating speed from 4 to 30 rpm/min during a time period of 4 minutes for at least 3 times on day 0. Vehicle or test article at a single dose is administered by intravenous infusion over 15 minutes starting 30 minutes before the test period starts and chlorpromazine (30 mg/kg, PO) was administered by oral gavage 60 minutes before the start of the test period. At 1, 2, 4, and 6 hours after the start of the test the mice are placed on the accelerating rotorod (increasing from 4 to 30 rpm/min during a 4 min period) and the time (seconds) the mouse remained on the rotorod was recorded. One-way ANOVA followed by Dunnett's test is applied for comparison between vehicle control and test article groups. P<0.05 is considered significant.
A baseline was measured before administration of the test agents and at 1, 2, 4 and 6 h post the start of the study. The effect of the compounds was evaluated in the standard RotoRod/Acelerorod test.

The test system of series [4] is beagle dog whole blood (male), red blood cells. The series can be described thus: In vitro hemolysis test, dog blood. The settings on record: dog whole unclotted blood, concentrations tested, 15 min at 37° C. The procedure:
as §1

A further series concerns Male rats. In words: Toxicologic profile in rats (clinical pathology, necropsy, histopathology). Conditions: 24 h after 15 minute IV infusion, infusion site, lung, liver, kidney.
Series [5] has as its system human (pooled) whole blood, red blood cells. The series can be described thus: In vitro hemolysis test, human blood. Conditions: human whole unclotted blood, concentrations tested, 15 min at 37° C. The procedure: as §1
The subject of series [6] is mouse whole blood (male), red blood cells. The series can be described thus: In vitro hemolysis test, mouse blood. Conditions: mouse whole unclotted blood, concentrations tested, 15 min at 37° C. The procedure: as §1
For series [7] the following is noted: Koshy et al; cited from earlier work.

For “1-(aminomethyl) cyclohexane acetic acid [Gabapentin]”, in [1], the “Plasma concentrations versus dose” value was “proportional with dose up to 1800 mg daily and then plateau at approximately 3600 mg daily”. Also, the “stability of GBP with stabilizer” value in series [2] is listed as “more stable”. In addition, the Interpretation of hemolysis entry in series [3], in series [4], in [5] and in series [6] was “not considered to be hemolytic” each time. Moreover, the “motor control (time on rotorod) compared to the vehicle control” value in the series on Male ICR mice is “no statistically significant decrease in motor control”. For the same compound, the “histopathology compared to the vehicle control” value with Male rats was “no changes in the histopathology in any tissue sampled”.
Consider `CC(=O)Nc1ccc(O)cc1` [Acetaminophen, acetaminophen], for which the Interpretation of hemolysis entry in [3], in [4], in series [5] and in [6] was “not considered to be hemolytic” in each case. Besides, the “motor control (time on rotorod) compared to the vehicle control” value in the series with Male ICR mice is listed as “no statistically significant decrease in motor control”. Further, the “pH range in which hydrolysis of APAP is minimum” value in series [7] was 5-7.

Values taken from US10874626B2, “Formulation for use in a method of treatment of pain” (NEVAKAR Inc., priority 2016, dated 2020).
